From patent US10138510B2, “Dual labeling methods for measuring cellular proliferation” (LIFE TECHNOLOGIES CORPORATION, priority 2008, dated 2018)

What was measured:
Format in all cases: cell-based
[1] = tested on: newly synthesized DNA of cells; test: Simultaneous EdU and BrdU pulse, incorporation into DNA detected by flow cytometry; conditions: for signal detected after simultaneous pulse: simultaneous pulse of EdU 20 μM and BrdU 10 μM, FIG. 3B
From the text: FIG. 3A-1, FIG. 3A-2 and FIG. 3A-3 present a series of graphs showing populations of cells treated with a first pulse label of EdU (10 μm) and a second pulse label of BrdU (10 μm) as detected by flow cytometry. The first graph (FIG. 3A-1) is divided into four quadrants with the first quadrant (Q1) located in the upper left hand corner, the second quadrant (Q2) located in the upper right hand corner, the third quadrant (Q3) located in the lower left hand corner, and the fourth quadrant (Q4) located in the lower right hand corner. Populations of cells in quadrant Q3 (lower left) are negative for both EdU (first pulse) and BrdU (second pulse). Populations of cells in quadrant Q2 (upper right) are positive for both EdU (first pulse) and BrdU (second pulse). FIG. 3A-2 is a graph of EdU vs. DNA cell cycle with gating P5>P1. […] FIG. 3B presents a graph showing populations of cells treated with simultaneous pulse of EdU at a concentration of 20 μM and BrdU at a concentration of 10 μM as detected by flow cytometry. The graph is divided into four quadrants with the first quadrant (Q1) located in the upper left hand corner, the second quadrant (Q2) located in the upper right hand corner, the third quadrant (Q3) located in the lower left hand corner, and the fourth quadrant (Q4) located in the lower right hand corner. Populations of cells in quadrant Q3 (lower left) are negative for both EdU and BrdU. Populations of cells in quadrant Q2 (upper right) are positive for both EdU and BrdU.
FIG. 5A, FIG. 5B, FIG. 5C and FIG. 5D present a series of graphs showing that when cells are treated with EdU and BrdU simultaneously, only a population of DNA labeled with BrdU is detected by flow cytometry. […] The third and fourth graphs (FIGS. 5C and 5D, respectively) show the dual parameter plot of fluorescent nucleotide label vs. DNA cell cycle treated with EdU and BrdU simultaneously. Only BrdU was incorporated into cells treated simultaneously with EdU and BrdU, as shown in the third and fourth graphs. […]

[2] = tested on: TF-1a human erythroblast cells; test: Dual pulse EdU/BrdU labeling of cellular proliferation with varying GM-CSF, flow cytometry
Experimental: A standard method of preparing cultured cells for the measurement of newly synthesized DNA (cellular proliferation) is set up according to known conditions for cells to be actively growing by providing the proper media and nutrient requirements. In the present example, TF-1a human erythroblast cell cultures were diluted one to four to a density of 2×10^5 cells/ml. Culture media contains varying amounts of GM-CSF, or granulocyte-macrophage colony-stimulating factor, at amounts equal to full (2 ng/ml) or ¼ (0.5 ng/ml) recommended concentration of GM-CSF, and no GM-CSF. After these cells had been growing 18 hours, the first nucleoside analog, EdU, was added at 20 μM, a concentration appropriate for incorporation in the DNA of cells undergoing DNA synthesis. The cells were grown in the presence of EdU for three hours. After initial period of growth and without the removal of EdU through the washing of the cells in fresh media, an appropriate amount of the competitive nucleoside analog, BrdU, was added at a 10 μM concentration, and GM-CSF was added at the same time as the BrdU in amounts to equal the full amount recommended for GM-CSF concentration of 2 ng/ml or kept at the same initial concentration of GM-CSF. The cells were grown for six hours. The cells were then harvested, washed, fixed with 70% ice-cold ETOH and stored at 4° C. until use. The cells were then washed and resuspended in 4M HCL for 20 minutes at room temperature. A phosphate/critric acid buffer was added, and the cells washed twice and resuspended in 0.1% TritonX/1% BSA/PBS at 1×10^7/ml. Then, labeling of the EdU was performed by adding click chemistry based reagents, including a solution comprised of CuSO4 in Tris-buffered saline and Alexa Fluor® 647-azide (650 nm excitation maxima/670 nm emission maxima) (Molecular Probes™/Invitrogen™, Carlsbad, Calif.). The cells were then washed with 0.1% TritonX/1% BSA/PBS. After this, labeling of the BrdU was performed using the anti-BrdU antibody FITC conjugate (494 nm excitation maxima/518 nm emission maxima) (Exalpha Biologicals, Inc., Maynard Calif.). To detect DNA content, a nucleic acid dye, DAPI (358 nm excitation maxima/461 nm emission maxima) (Molecular Probes™/Invitrogen™, Carlsbad, Calif.) was added. Detection of the three labels was performed by flow cytometry. To detect the BrdU label, 488 nm excitation was used, with a 530/30 nm bandpass. To detect the EdU label, 633 nm excitation was used, with a 660/20 nm bandpass. To detect DNA content, 355 nm excitation was used, with a 450/50 nm bandpass.

[3] = tested on: Jurkat T-cell lymphocyte cells; test: Dual pulse EdU/BrdU labeling of cellular proliferation after colchicine cell cycle block, flow cytometry
Experimental: A standard method of preparing cultured cells for the measurement of newly synthesized DNA (cellular proliferation) is set up according to known conditions for cells to be actively growing by providing the proper media and nutrient requirements. In the present example, Jurkat T-cell lymphocyte cell cultures were diluted one to four to a density of 2×10^5 cells/ml. The cultures were treated with a cell cycle blocking agent, colchicine, which stops proliferation at the G2M stage of the cell cycle, at concentrations of 0, 32 nM, 75 nM, 125 nM, 250 nM, 500 nM and 1 μM for 18 hours. To each condition, the first nucleoside analog, EdU, was then added at 10 μM, a concentration appropriate for incorporation in the DNA of cells undergoing DNA synthesis. The cells were grown in the presence of EdU for one hour. The cells were then centrifuged to pellet the cells and remove the media with blocking agent, and cells had replacement of fresh media. The cell cultures were allowed to recover for two hours before an appropriate amount of the second nucleoside analog, BrdU, was added at a 10 μM concentration, and the cells were grown for one hour. The cells were then harvested, washed, fixed with 70% ice-cold ETOH and stored at 4° C. until use. The cells were then washed and resuspended in 4M HCL for 20 minutes at room temperature. A phosphate/critric acid buffer was added, and the cells washed twice and resuspended in 0.1% TritonX/1% BSA/PBS at 1×10^7/ml. Then, labeling of the EdU was performed by adding click chemistry based reagents, including a solution comprised of CuSO4 in Tris-buffered saline and Alexa Fluor® 647-azide (650 nm excitation maxima/670 nm emission maxima) (Molecular Probes™/Invitrogen™, Carlsbad, Calif.). The cells were then washed with 0.1% TritonX/1% BSA/PBS. […]
A series of result graphs labeled FIGS. 12-1A, 12-1B, 12-1C, 12-1D, 12-1E, 12-2F, 12-2G, 12-2H, 12-2I and 12-2J show populations of cells treated with a first pulse label of EdU (20 μM) and a second pulse label of BrdU (10 μm) as detected by flow cytometry. […]

[4] = GM-CSF 0.5 ng/ml with EdU pulse, 0.5 ng/ml with BrdU pulse
[5] = GM-CSF 0.5 ng/ml with EdU pulse, 2 ng/ml with BrdU pulse
[6] = GM-CSF 2 ng/ml (control) with EdU pulse, 2 ng/ml (control) with BrdU pulse, EdU 20 μM 3 h, BrdU 10 μM 6 h
[7] = no GM-CSF with EdU pulse, GM-CSF 2 ng/ml with BrdU pulse

Compound: C#Cc1cn([C@H]2C[C@H](O)[C@@H](CO)O2)c(=O)[nH]c1=O [EdU, 5-ethynyl 2′-deoxyuridine]
- signal detected after simultaneous pulse [1]: no signal detected

Compound: GM-CSF: granulocyte-macrophage colony-stimulating factor, growth factor in TF-1a culture media
- proliferative recovery of cells ([2]; 0.5 ng/ml GM-CSF, addition of GM-CSF to 2 ng/ml with the BrdU pulse): does not show any proliferative recovery
- % BrdU Pos [2, 4]: 66.3%
- % EdU Pos [2, 4]: 57%
- % BrdU Pos [2, 5]: 65.1%
- % EdU Pos [2, 5]: 57.5%
- % BrdU Pos [2, 6]: 72.2%
- % EdU Pos [2, 6]: 53.9%
- proliferation over control ([2]; dual pulse with 0.5 ng/ml GM-CSF vs 2 ng/ml control): only a slight decrease of proliferation over control
- % BrdU Pos [2, 7]: 53%
- % EdU Pos [2, 7]: 42.3%
- proliferative recovery of cells (BrdU positivity) ([2]; no GM-CSF with EdU pulse, GM-CSF added with just the BrdU pulse): some proliferative recovery

Compound: O=c1[nH]c(=O)n([C@H]2C[C@H](O)[C@@H](CO)O2)cc1Br [BrdU, 5-bromo 2′-deoxyuridine]
- incorporation into DNA in the presence of both nucleoside analogs ([1]; EdU and BrdU added simultaneously, Example 3, FIGS. 5A-5D): only the BrdU analog is incorporated into the DNA
- signal detected after simultaneous pulse [1]: only positive signal detected from the BrdU

Compound: COc1cc2c(c(OC)c1OC)-c1ccc(OC)c(=O)cc1[C@@H](NC(C)=O)CC2 [colchicine]
- proliferation (EdU and BrdU positive events) vs control ([3]; 32 nM colchicine for 18 hours before the first pulse, FIGS. 12-2F to 12-2J): decreased proliferation
- proliferation with both pulses of EdU and BrdU ([3]; all colchicine concentrations (32 nM to 1 μM), 18 hours, FIG. 11): decreased proliferation
- recovery of proliferation after removal of colchicine (second pulse of BrdU) ([3]; any colchicine concentration, two hours recovery in fresh media): no recovery
